Data set [1] can be described thus: Metabolic stability in human liver microsomes (HLM). In kind it is in vitro ADME. The conditions noted are these: from HLM half-life, well-stirred model, phase I reactions; 1 μM test compound. The method, then: Metabolic stability of 4-[(11β,17β)-17-hydroxy-3-oxo-17-(pentafluoro-ethyl)estra-4,9-dien-11-yl]benzamide and 4′-[(11β,17β)-17-hydroxy-3-oxo-17-(pentafluoro-ethyl)estra-4,9-dien-11-yl]biphenyl-4-carboxamide in human liver microsomes (HLM) Isolated human liver microsomes (HLM) were used for assessing the metabolic stability of compounds of general formula I. The incubations were carried out with 2.4 ml HLM solution (0.5 mg/ml protein content), 30 μl of the test compound (final concentration 1 μM) and 0.6 ml of the cofactor mixture (=NADPH-generating system of 3 IU glucose-6-phosphate dehydrogenase, 14.6 mg glucose-6-phosphate, 1.2 mg NADP) at 37° C. in 100 mM phosphate buffer at pH 7.4. Samples are taken at 6 time points (2-60 min), precipitated with an equal volume of methanol, and the recovery of the test substances used in the supernatant is determined by LC-MS/MS analysis. The intrinsic clearance of the substance in the liver microsome assay can be calculated from the value found for the half-life of substance breakdown. Using this, on the basis of various physiological characteristics according to the well-stirred model it is possible to predict a (metabolic) in-vivo clearance with respect to phase I reactions.

Data set [2] addresses T1, human progesterone receptor B (Homo sapiens, UniProt P06401).
T1 construct: expressed in transfected cells; host or cells: SK-N-MC human neuroblastoma cells, stably transfected
T1 sequence (P06401 1-933): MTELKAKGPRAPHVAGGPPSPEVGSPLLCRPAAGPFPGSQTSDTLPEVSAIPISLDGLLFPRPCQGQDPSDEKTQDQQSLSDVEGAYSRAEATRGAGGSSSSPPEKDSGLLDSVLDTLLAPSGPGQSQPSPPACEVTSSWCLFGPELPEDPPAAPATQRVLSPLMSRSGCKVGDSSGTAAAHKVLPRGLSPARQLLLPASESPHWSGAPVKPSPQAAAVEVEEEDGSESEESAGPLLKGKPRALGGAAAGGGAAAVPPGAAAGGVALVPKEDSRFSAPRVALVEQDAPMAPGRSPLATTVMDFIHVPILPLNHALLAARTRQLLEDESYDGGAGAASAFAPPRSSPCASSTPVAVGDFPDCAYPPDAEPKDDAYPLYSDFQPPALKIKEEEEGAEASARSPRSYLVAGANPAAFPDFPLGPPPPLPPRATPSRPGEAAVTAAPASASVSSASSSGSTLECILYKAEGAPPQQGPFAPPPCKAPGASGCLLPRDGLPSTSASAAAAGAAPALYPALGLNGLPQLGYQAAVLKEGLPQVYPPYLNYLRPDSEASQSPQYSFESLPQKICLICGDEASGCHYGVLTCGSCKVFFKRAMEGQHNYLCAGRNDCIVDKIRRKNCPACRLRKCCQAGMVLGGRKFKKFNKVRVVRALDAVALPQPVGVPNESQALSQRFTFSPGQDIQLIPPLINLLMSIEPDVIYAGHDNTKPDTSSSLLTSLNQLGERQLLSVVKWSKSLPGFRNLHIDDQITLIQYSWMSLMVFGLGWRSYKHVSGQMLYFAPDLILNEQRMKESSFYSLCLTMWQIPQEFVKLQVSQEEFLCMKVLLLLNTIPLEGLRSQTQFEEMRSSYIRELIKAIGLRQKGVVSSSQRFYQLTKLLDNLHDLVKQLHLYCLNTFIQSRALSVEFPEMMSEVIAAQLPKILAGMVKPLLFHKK
The data set can be described thus: Progesterone-receptor-antagonistic action in stably transfected SK-N-MC cells, MTV-LUC reporter (PR-B). In kind it is cell-based. To be noted: antagonistic potency vs 0.1 nmol/l promegestone, 24 hours, luciferase. The protocol: Progesterone-Receptor-Antagonistic Action in Stable Transfectants of Human Neuroblastoma Cells (SK-N-MC Cells) with the Human Progesterone A or Progesterone B Receptor and an MTV-LUC Reporter Construct
SK-N-MC cells (human neuroblastoma cells) that have been stably transfected with plasmids that express the human progesterone receptor B (pRChPR-B-neo) or the human progesterone receptor A (pRChPR-A-neo) and a reporter construct (pMMTV-LUC), were incubated for 24 hours either in the absence (negative control) or in the presence of increasing amounts of the particular test compound (0.01 nmol/l, 0.1 nmol/l, 1 nmol/l, 10 nmol/l, 100 nmol/l and 1 μmol/l), to determine the agonistic efficacy. As positive control of reporter gene induction, the cells were treated with the synthetic gestagen promegestone (0.01 nmol/l, 0.1 nmol/l, 1 nmol/l, 10 nmol/l, 100 nmol/l and 1 μmol/l). For determination of the antagonistic activity, the cells were treated with 0.1 nmol/l promegestone and additionally with increasing amounts of the particular test compound (0.01 nmol/l, 0.1 nmol/l, 1 nmol/l, 10 nmol/l, 100 nmol/l and 1 μmol/l). The activity of the reporter gene LUC (LUC=luciferase) was determined in the cell lysates and was measured as RLU (relative light units). All measured values are given as % efficacy and as EC50 or IC50 concentrations.

Data set [3] has as its system pregnant rats. The data set can be described thus: Test as abortifacient in female rats (termination of early pregnancy). In kind it is in vivo, rat. To be noted: d5-d7 p.c., autopsy d9 p.c. The protocol: Test as Abortifacient in Female Rats
The antagonistic action of the compounds according to the invention was tested on pregnant rats (6 rats per group) on day 5 to 7 post coitum in conventional conditions of husbandry and feeding.
After successful mating, the pregnant animals (presence of sperm in the vaginal smear on day 1 of pregnancy=d1 p.c.) were randomized and were divided into the treatment group and the control group. The animals then received, subcutaneously or orally, in each case 0.15; 0.5; 1.5 or 5 mg/kg of the test compound or 1.0 ml/kg of vehicle (benzyl benzoate/castor oil: 1+4 [v/v]) daily from day 5 to day 7 (d5-d7 p.c.).
Autopsy was carried out on day 9 (d9 p.c.). For characterization of progesterone-receptor-antagonistic action, the uterus was investigated for the presence of nidation sites. Complete absence, but also the presence of pathological, haemorrhagic or otherwise abnormal nidation sites on day 9 (d9 p.c.) was assessed as abortion.

The target in data set [4] is T2, human progesterone receptor A (Homo sapiens, UniProt P06401).
T2 construct: expressed in transfected cells; host or cells: SK-N-MC human neuroblastoma cells, stably transfected
T2 sequence (P06401 1-769 isoform P06401-2): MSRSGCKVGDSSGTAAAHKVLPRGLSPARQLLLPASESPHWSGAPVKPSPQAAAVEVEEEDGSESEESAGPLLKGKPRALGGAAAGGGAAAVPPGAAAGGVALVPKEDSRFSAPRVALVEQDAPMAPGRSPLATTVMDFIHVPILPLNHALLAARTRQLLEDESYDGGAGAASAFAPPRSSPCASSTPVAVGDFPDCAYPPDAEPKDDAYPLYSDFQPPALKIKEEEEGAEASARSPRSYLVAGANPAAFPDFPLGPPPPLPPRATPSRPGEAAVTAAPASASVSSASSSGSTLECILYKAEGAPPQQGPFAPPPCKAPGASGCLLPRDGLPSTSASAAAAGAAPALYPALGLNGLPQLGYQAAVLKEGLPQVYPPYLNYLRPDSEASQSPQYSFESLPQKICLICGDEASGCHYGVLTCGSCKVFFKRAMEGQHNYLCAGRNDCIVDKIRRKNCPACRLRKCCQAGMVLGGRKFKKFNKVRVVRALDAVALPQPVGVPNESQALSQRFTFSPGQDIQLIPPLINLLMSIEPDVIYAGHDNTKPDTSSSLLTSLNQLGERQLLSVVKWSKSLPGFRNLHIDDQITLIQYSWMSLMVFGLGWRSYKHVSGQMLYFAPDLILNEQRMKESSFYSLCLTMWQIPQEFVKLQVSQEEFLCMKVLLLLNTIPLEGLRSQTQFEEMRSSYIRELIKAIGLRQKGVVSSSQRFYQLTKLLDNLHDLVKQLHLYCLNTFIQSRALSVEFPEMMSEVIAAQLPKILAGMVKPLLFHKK
In words: Progesterone-receptor-antagonistic action in stably transfected SK-N-MC cells, MTV-LUC reporter (PR-A). In kind it is cell-based. The conditions noted are these: antagonistic potency vs 0.1 nmol/l promegestone, 24 hours, luciferase. In a few lines:
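SK-N-MC neuroblastoma cells stably expressing human PR-B or PR-A plus MMTV-LUC reporter, treated 24 h with 0.1 nmol/l promegestone plus test compound at 0.01 nmol/l–1 μmol/l. Luciferase in lysates read as RLU; values as % efficacy and IC50.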

We go through two compounds from patent US9109004B2, “Progesterone receptor antagonists” (Bayer Intellectual Property GmbH, priority 2010, dated 2015).

Structures are written as SMILES.

In the case of `C[C@]12C[C@H](c3ccc(C(N)=O)cc3)C3=C4CCC(=O)C=C4CC[C@H]3[C@@H]1CC[C@@]2(O)C(F)(F)C(F)(F)F` [Example 1, 4-[(11β,17β)-17-Hydroxy-3-oxo-17-(pentafluoroethyl)estra-4,9-dien-11-yl]benzamide], the “(metabolic) in-vivo clearance in humans predicted” value in data set [1] is 5.5 mL/min/kg. Further, the concentration for half-maximal inhibition (IC50) (commonly the concentration that inhibits the measured activity by half) in data set [2] came out at 0.9 nM. Also, the Abortion rate in data set [3] (daily dose 0.5 mg/kg p.o.) is on record as 0%; in data set [3] (daily dose 1.5 mg/kg p.o.), 50%; in data set [3] (daily dose 5.0 mg/kg p.o.), 100%.
As to `C[C@]12C[C@H](c3ccc(C(=O)N4CCC(C(=O)O)CC4)cc3)C3=C4CCC(=O)C=C4CC[C@H]3[C@@H]1CC[C@@]2(O)C(F)(F)C(F)(F)F` [Example 75, 1-{4-[(11β,17β)-17-Hydroxy-3-oxo-17-(pentafluoroethyl)estra-4,9-dien-11-yl]benzoyl}piperidine-4-carboxylic acid], the IC50 in data set [2] was determined as 10 nM; in data set [4], 23 nM.
